Results taken from patent US10119168B2, “Methods for the treatment of kidney fibrosis” (priority 2014, dated 2018).

System: mouse kidney
Test: RNA-seq of kidney gene expression over time in FA nephropathy progression (Table 1)
Type: in vivo
Excerpt: Identification of Candidate Genes for Biomarkers of Kidney Fibrosis Through RNA-Seq. […] To select genes that are indicative of fibrosis candidates were considered from this later group that had robust upregulation (>5-fold with >100 read counts at peak) over time as fibrosis progresses. Another important criteria was the location of the protein product of the gene, either in extracellular matrix or transmembrane, to increase the chance of detecting it in the urine and use it as a biomarker(11).
(§1) RNA samples (n=3 mice/time point) were sequenced at the Bioplymers Facility at the Harvard Medical School. Libraries were prepared from 10 ng total RNA per sample using the IntegenX Apollo 324 system and NuGEN SPIA reagents. Libraries were multiplexed in groups of three per lane of a flowcell and 50 cycle, paired-end sequencing was performed on an Illumina HiSeq2000 instrument. Illumina sequence quality was surveyed with FastQC (available on the world wide web at bioinformatics.babraham.ac.uk/projects/fastqc/) to ensure suitability of library generation and sequencing for further analysis. Adapters and lower quality bases were trimmed with Cutadapt (available on the world wide web at code.google.com/p/cutadapt/), using a Phred quality cutoff of 20, and reassessed with FastQC. Trimmed reads were aligned to the Ensembl NCBIM37 Mus musculus genome build with TopHat2. Aligned reads were summarized at the gene level against the Illumina iGenomes (available on the world wide web at tophat.cbcb.umd.edu/igenomes.html) NCBIM37 Mus musculus gene annotations using HTSeq (available on the world wide web at huber.embl.de/users/anders/HTSeq/doc/overview.html). […] The full dataset is available in the NCBI GEO database with the accession number GSE65267. Raw data is accessible on the world wide web at ncbi.nlm.nih.gov/geo/query/acc.cgi?acc=GSE65267.
Mice were sacrificed at 1, 2, 3, 7 and 14 days following administration. […] All mice were sacrificed at 14 days.
as §1, with “The quantity and quality of mRNA” for “RNA samples (n=3 mice/time point)”, “assayed on an Agilent 2200 TapeStation instrument and by SYBR qPCR assay.” for “sequenced at the Bioplymers Facility at the Harvard Medical School.”, “(https://code.google.com/p/cutadapt/),” for “(available on the world wide web at code.google.com/p/cutadapt/),”

## Nc1nc2ncc(CNc3ccc(C(=O)N[C@@H](CCC(=O)O)C(=O)O)cc3)nc2c(=O)[nH]1 [FA, folic acid]
Day 1
  7SK RNA mean fold change from normal: 0.04 fold
  2310042D19Rik mean fold change from normal: 0.09 fold
  4930533I22Rik mean fold change from normal: 0.11 fold
  4933417A18Rik mean fold change from normal: 0.04 fold
  8430408G22Rik mean fold change from normal: 0.09 fold
  9030619P08Rik mean fold change from normal: 0.01 fold
  Slc2a5 mean fold change from normal: 0.07 fold
  Slc4a1 mean fold change from normal: 0.11 fold
  Slc5a4a mean fold change from normal: 0.02 fold
  Slc5a12 mean fold change from normal: 0.06 fold
  Slc6a12 mean fold change from normal: 0.02 fold
  Slc7a13 mean fold change from normal: 0.02 fold
  Slc28a1 mean fold change from normal: 0.02 fold
  Slc34a1 mean fold change from normal: 0.05 fold
  Slc34a2 mean fold change from normal: 11.81 fold
  Slc34a3 mean fold change from normal: 0.05 fold
  Slc46a3 mean fold change from normal: 0.11 fold
  Slco1a1 mean fold change from normal: 0.18 fold
  Smoc2 mean fold change from normal: 0.06 fold
  Smpdl3b mean fold change from normal: 222.02 fold
  Snx31 mean fold change from normal: 0.06 fold
  Socs1 mean fold change from normal: 77.54 fold
  Sox4 mean fold change from normal: 12.86 fold
  Sox9 mean fold change from normal: 24.10 fold
  Spaca7 mean fold change from normal: 27.30 fold
  Spink6 mean fold change from normal: 46.74 fold
  Spp1 mean fold change from normal: 113.22 fold
  Spred3 mean fold change from normal: 6.01 fold
  Spsb1 mean fold change from normal: 11.68 fold
  Spt1c3 mean fold change from normal: 0.07 fold
  St8sia2 mean fold change from normal: 3.07 fold
  Stil mean fold change from normal: 13.84 fold
  Stk32a mean fold change from normal: 10.38 fold
  Stra6 mean fold change from normal: 1.19 fold
  Susd2 mean fold change from normal: 0.18 fold
  Sycn mean fold change from normal: 0.07 fold
  Synpr mean fold change from normal: 0.23 fold
  Sytl2 mean fold change from normal: 3.75 fold
  Tagln2 mean fold change from normal: 8.92 fold
  Tbx10 mean fold change from normal: 0.06 fold
  Timd2 mean fold change from normal: 7.27 fold
  Timp1 mean fold change from normal: 175.24 fold
  Tlr2 mean fold change from normal: 6.43 fold
  Tmem25 mean fold change from normal: 0.11 fold
  Tmem26 mean fold change from normal: 0.10 fold
  Tmem207 mean fold change from normal: 0.01 fold
  Tmsb10 mean fold change from normal: 19.04 fold
  Tnc mean fold change from normal: 13.27 fold
  Tnfaip3 mean fold change from normal: 1.97 fold
  Tnfrsf23 mean fold change from normal: 18.16 fold
  Top2a mean fold change from normal: 5.38 fold
  Tpx2 mean fold change from normal: 3.87 fold
  Tril mean fold change from normal: 0.07 fold
  Tsc22d1 mean fold change from normal: 8.11 fold
  Ttc36 mean fold change from normal: 0.04 fold
  Ttr mean fold change from normal: 0.05 fold
  Tyrobp mean fold change from normal: 1.26 fold
  Ugt3a1 mean fold change from normal: 0.18 fold
  Uhrf1 mean fold change from normal: 16.90 fold
  Upp2 mean fold change from normal: 0.25 fold
  Vcam1 mean fold change from normal: 13.66 fold
  Vill mean fold change from normal: 0.09 fold
  Vmn1r18 mean fold change from normal: 0.02 fold
  Vmn1r19 mean fold change from normal: 0.03 fold
  Vmn1r20 mean fold change from normal: 0.02 fold
  Vmn1r-ps11 mean fold change from normal: 0.02 fold
  Vstm2a mean fold change from normal: 0.04 fold
  Vtcn1 mean fold change from normal: 64.93 fold
  Vwce mean fold change from normal: 0.06 fold
  Wfdc15b mean fold change from normal: 0.02 fold
  Ybx2 mean fold change from normal: 0.08 fold
Day 2
  7SK RNA mean fold change from normal: 0.04 fold
  2310042D19Rik mean fold change from normal: 0.08 fold
  4930533I22Rik mean fold change from normal: 0.09 fold
  4933417A18Rik mean fold change from normal: 0.07 fold
  8430408G22Rik mean fold change from normal: 0.23 fold
  9030619P08Rik mean fold change from normal: 0.05 fold
  Slc2a5 mean fold change from normal: 0.09 fold
  Slc4a1 mean fold change from normal: 0.09 fold
  Slc5a4a mean fold change from normal: 0.37 fold
  Slc5a12 mean fold change from normal: 0.34 fold
  Slc6a12 mean fold change from normal: 0.13 fold
  Slc7a13 mean fold change from normal: 0.02 fold
  Slc28a1 mean fold change from normal: 0.19 fold
  Slc34a1 mean fold change from normal: 0.11 fold
  Slc34a2 mean fold change from normal: 16.20 fold
  Slc34a3 mean fold change from normal: 0.05 fold
  Slc46a3 mean fold change from normal: 0.36 fold
  Slco1a1 mean fold change from normal: 0.16 fold
  Smoc2 mean fold change from normal: 0.06 fold
  Smpdl3b mean fold change from normal: 124.22 fold
  Snx31 mean fold change from normal: 0.05 fold
  Socs1 mean fold change from normal: 53.23 fold
  Sox4 mean fold change from normal: 13.93 fold
  Sox9 mean fold change from normal: 49.89 fold
  Spaca7 mean fold change from normal: 74.80 fold
  Spink6 mean fold change from normal: 13.93 fold
  Spp1 mean fold change from normal: 174.85 fold
  Spred3 mean fold change from normal: 11.03 fold
  Spsb1 mean fold change from normal: 13.04 fold
  Spt1c3 mean fold change from normal: 0.11 fold
  St8sia2 mean fold change from normal: 2.10 fold
  Stil mean fold change from normal: 32.74 fold
  Stk32a mean fold change from normal: 7.59 fold
  Stra6 mean fold change from normal: 1.95 fold
  Susd2 mean fold change from normal: 0.07 fold
  Sycn mean fold change from normal: 0.07 fold
  Synpr mean fold change from normal: 0.02 fold
  Sytl2 mean fold change from normal: 5.53 fold
  Tagln2 mean fold change from normal: 6.40 fold
  Tbx10 mean fold change from normal: 0.10 fold
  Timd2 mean fold change from normal: 2.97 fold
  Timp1 mean fold change from normal: 194.76 fold
  Tlr2 mean fold change from normal: 12.76 fold
  Tmem25 mean fold change from normal: 0.34 fold
  Tmem26 mean fold change from normal: 0.07 fold
  Tmem207 mean fold change from normal: 0.02 fold
  Tmsb10 mean fold change from normal: 18.72 fold
  Tnc mean fold change from normal: 9.63 fold
  Tnfaip3 mean fold change from normal: 3.85 fold
  Tnfrsf23 mean fold change from normal: 7.62 fold
  Top2a mean fold change from normal: 15.75 fold
  Tpx2 mean fold change from normal: 10.97 fold
  Tril mean fold change from normal: 0.43 fold
  Tsc22d1 mean fold change from normal: 6.92 fold
  Ttc36 mean fold change from normal: 0.10 fold
  Ttr mean fold change from normal: 0.04 fold
  Tyrobp mean fold change from normal: 1.65 fold
  Ugt3a1 mean fold change from normal: 0.07 fold
  Uhrf1 mean fold change from normal: 31.75 fold
  Upp2 mean fold change from normal: 0.11 fold
  Vcam1 mean fold change from normal: 30.80 fold
  Vill mean fold change from normal: 0.28 fold
  Vmn1r18 mean fold change from normal: 0.01 fold
  Vmn1r19 mean fold change from normal: 0.02 fold
  Vmn1r20 mean fold change from normal: 0.34 fold
  Vmn1r-ps11 mean fold change from normal: 0.03 fold
  Vstm2a mean fold change from normal: 0.05 fold
  Vtcn1 mean fold change from normal: 44.16 fold
  Vwce mean fold change from normal: 0.08 fold
  Wfdc15b mean fold change from normal: 0.05 fold
  Ybx2 mean fold change from normal: 0.12 fold
Day 3
  7SK RNA mean fold change from normal: 0.08 fold
  2310042D19Rik mean fold change from normal: 0.47 fold
  4930533I22Rik mean fold change from normal: 0.22 fold
  4933417A18Rik mean fold change from normal: 0.49 fold
  8430408G22Rik mean fold change from normal: 0.34 fold
  9030619P08Rik mean fold change from normal: 0.02 fold
  Slc2a5 mean fold change from normal: 0.21 fold
  Slc4a1 mean fold change from normal: 0.18 fold
  Slc5a4a mean fold change from normal: 0.51 fold
  Slc5a12 mean fold change from normal: 0.38 fold
  Slc6a12 mean fold change from normal: 0.26 fold
  Slc7a13 mean fold change from normal: 0.11 fold
  Slc28a1 mean fold change from normal: 0.18 fold
  Slc34a1 mean fold change from normal: 0.33 fold
  Slc34a2 mean fold change from normal: 7.59 fold
  Slc34a3 mean fold change from normal: 0.09 fold
  Slc46a3 mean fold change from normal: 0.57 fold
  Slco1a1 mean fold change from normal: 0.19 fold
  Smoc2 mean fold change from normal: 1.83 fold
  Smpdl3b mean fold change from normal: 111.13 fold
  Snx31 mean fold change from normal: 0.07 fold
  Socs1 mean fold change from normal: 43.48 fold
  Sox4 mean fold change from normal: 11.69 fold
  Sox9 mean fold change from normal: 52.43 fold
  Spaca7 mean fold change from normal: 18.32 fold
  Spink6 mean fold change from normal: 9.16 fold
  Spp1 mean fold change from normal: 63.01 fold
  Spred3 mean fold change from normal: 8.99 fold
  Spsb1 mean fold change from normal: 4.64 fold
  Spt1c3 mean fold change from normal: 1.02 fold
  St8sia2 mean fold change from normal: 10.17 fold
  Stil mean fold change from normal: 10.68 fold
  Stk32a mean fold change from normal: 5.33 fold
  Stra6 mean fold change from normal: 8.56 fold
  Susd2 mean fold change from normal: 0.32 fold
